Experimental data: paper PMC4893628, “Chalcone-based Selective Inhibitors of a C4 Plant Key Enzyme as Novel Potential Herbicides” (Scientific Reports, 2016)
Like-named read-outs stand apart in the source and are kept apart here.

What was measured:
Amaranthus retroflexus = assay: In planta growth experiment, A. retroflexus; type: in vivo; details: for Influence on plants: shoots sprayed, 3 mM
In short: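 A. retroflexus seedlings at two-leaf stage, grown at 22/20 °C, 16 h light, sprayed once on shoots with 3 mM compound in 2.4% DMSO, 0.1% Tween; DMSO/Tween control.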

[1] = system: Escherichia coli K-12 MG1655; assay: Bacterial growth in microscale cultivation, E. coli; type: cell-based; details: for activity at 0.3 µM / activity at 3 µM / activity at 30 µM: Escherichia coli
In short: (§1)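 Inhibitors in DMSO were added to the medium, at a maximum of 400 μM for trans-chalcone and 100 μM for 2'-hydroxychalcone. Cultures were seeded at OD600 0.5, or 0.25 for B. subtilis, and growth was followed as 620 nm backscatter in a BioLector at 1200 rpm. Final backscatter, growth rate and lag phase were compared with DMSO controls.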

[2] = system: Pseudomonas putida KT2440; assay: Bacterial growth in microscale cultivation, P. putida; type: cell-based; details: for activity at 0.3 µM / activity at 3 µM / activity at 30 µM: Pseudomonas putida
In short: as §1

[3] = MG1655, complex medium, 0.3 µM, relative to control, read-out: Final Backscatter
[4] = MG1655, complex medium, 0.3 µM, relative to control, read-out: Growth rate
[5] = MG1655, complex medium, 3 µM, relative to control, read-out: Final Backscatter
[6] = MG1655, complex medium, 3 µM, relative to control, read-out: Growth rate
[7] = MG1655, complex medium, 30 µM, relative to control, read-out: Final Backscatter
[8] = MG1655, complex medium, 30 µM, relative to control, read-out: Growth rate
[9] = MG1655, minimal medium, 0.3 µM, relative to control, read-out: Final Backscatter
[10] = MG1655, minimal medium, 0.3 µM, relative to control, read-out: Growth rate
[11] = MG1655, minimal medium, 3 µM, relative to control, read-out: Final Backscatter
[12] = MG1655, minimal medium, 3 µM, relative to control, read-out: Growth rate
[13] = MG1655, minimal medium, 30 µM, relative to control, read-out: Final Backscatter
[14] = MG1655, minimal medium, 30 µM, relative to control, read-out: Growth rate
[15] = complex medium, 0.3 µM, relative to control
[16] = complex medium, 3 µM, relative to control
[17] = complex medium, 30 µM, relative to control
[18] = minimal medium, 0.3 µM, relative to control
[19] = minimal medium, 3 µM, relative to control
[20] = minimal medium, 30 µM, relative to control
[21] = KT2440, complex medium, 0.3 µM, relative to control, read-out: Final Backscatter
[22] = KT2440, complex medium, 0.3 µM, relative to control, read-out: Growth rate
[23] = KT2440, complex medium, 3 µM, relative to control, read-out: Final Backscatter
[24] = KT2440, complex medium, 3 µM, relative to control, read-out: Growth rate
[25] = KT2440, complex medium, 30 µM, relative to control, read-out: Final Backscatter
[26] = KT2440, complex medium, 30 µM, relative to control, read-out: Growth rate
[27] = KT2440, minimal medium, 0.3 µM, relative to control, read-out: Final Backscatter
[28] = KT2440, minimal medium, 0.3 µM, relative to control, read-out: Growth rate
[29] = KT2440, minimal medium, 3 µM, relative to control, read-out: Final Backscatter
[30] = KT2440, minimal medium, 3 µM, relative to control, read-out: Growth rate
[31] = KT2440, minimal medium, 30 µM, relative to control, read-out: Final Backscatter
[32] = KT2440, minimal medium, 30 µM, relative to control, read-out: Growth rate

O=C(/C=C/c1cc(O)c(O)c(O)c1)c1ccc(O)cc1O [Compound 9, 2′,4′,3,4,5-Pentahydroxychalcone]
Influence on plants (Amaranthus retroflexus): No | activity at 0.3 µM [1, 3]: 100% | activity at 0.3 µM [1, 4]: 103% | activity at 3 µM [1, 5]: 99.7% | activity at 3 µM [1, 6]: 95.4% | activity at 30 µM [1, 7]: 98.2% | activity at 30 µM [1, 8]: 87.6% | activity at 0.3 µM [1, 9]: 100% | activity at 0.3 µM [1, 10]: 106% | activity at 3 µM [1, 11]: 101% | activity at 3 µM [1, 12]: 110% | activity at 30 µM [1, 13]: 102% | activity at 30 µM [1, 14]: 110% | Lag Phase [1, 15]: 103,4% | Lag Phase [1, 16]: 103,4% | Lag Phase [1, 17]: 110,3% | Lag Phase [1, 18]: 100,0% | Lag Phase [1, 19]: 98,2% | Lag Phase [1, 20]: 96,4% | activity at 0.3 µM [2, 21]: 94.7% | activity at 0.3 µM [2, 22]: 99.4% | activity at 3 µM [2, 23]: 96.9% | activity at 3 µM [2, 24]: 101% | activity at 30 µM [2, 25]: 93% | activity at 30 µM [2, 26]: 102% | activity at 0.3 µM [2, 27]: 93.1% | activity at 0.3 µM [2, 28]: 109% | activity at 3 µM [2, 29]: 96.5% | activity at 3 µM [2, 30]: 108% | activity at 30 µM [2, 31]: 98.3% | activity at 30 µM [2, 32]: 108% | Lag Phase [2, 15]: 101,2% | Lag Phase [2, 16]: 102,4% | Lag Phase [2, 17]: 99,4% | Lag Phase [2, 18]: 99,0% | Lag Phase [2, 19]: 99,3% | Lag Phase [2, 20]: 99,7%

O=C(/C=C/c1ccccc1)c1ccc(O)c(O)c1O [Compound 10, 2′,3′,4′-Trihydroxychalcone]
Influence on plants (Amaranthus retroflexus): Yes | dry weight (Amaranthus retroflexus; six days after treatment, both experiments): significantly reduced | activity at 0.3 µM ([1]; MG1655, read-out: Final Backscatter, complex medium, 0.3 µM, relative to control): 106% | activity at 3 µM ([1]; MG1655, read-out: Final Backscatter, complex medium, 3 µM, relative to control): 106% | activity at 30 µM ([1]; MG1655, read-out: Final Backscatter, complex medium, 30 µM, relative to control): 98.9% | activity at 0.3 µM ([1]; MG1655, read-out: Final Backscatter, minimal medium, 0.3 µM, relative to control): 105% | activity at 3 µM ([1]; MG1655, read-out: Final Backscatter, minimal medium, 3 µM, relative to control): 105% | activity at 30 µM ([1]; MG1655, read-out: Final Backscatter, minimal medium, 30 µM, relative to control): 109% | activity at 0.3 µM ([1]; MG1655, read-out: Growth rate, complex medium, 0.3 µM, relative to control): 109% | activity at 3 µM ([1]; MG1655, read-out: Growth rate, complex medium, 3 µM, relative to control): 99.8% | activity at 30 µM ([1]; MG1655, read-out: Growth rate, complex medium, 30 µM, relative to control): 104% | activity at 0.3 µM ([1]; MG1655, read-out: Growth rate, minimal medium, 0.3 µM, relative to control): 96.3% | activity at 3 µM ([1]; MG1655, read-out: Growth rate, minimal medium, 3 µM, relative to control): 92% | activity at 30 µM ([1]; MG1655, read-out: Growth rate, minimal medium, 30 µM, relative to control): 99.2% | Lag Phase [1, 15]: 92,1% | Lag Phase [1, 16]: 94,8% | Lag Phase [1, 17]: 118,4% | Lag Phase [1, 18]: 92,1% | Lag Phase [1, 19]: 90,6% | Lag Phase [1, 20]: 92,1% | activity at 0.3 µM ([2]; KT2440, read-out: Final Backscatter, complex medium, 0.3 µM, relative to control): 103% | activity at 3 µM ([2]; KT2440, read-out: Final Backscatter, complex medium, 3 µM, relative to control): 102% | activity at 30 µM ([2]; KT2440, read-out: Final Backscatter, complex medium, 30 µM, relative to control): 105% | activity at 0.3 µM ([2]; KT2440, read-out: Final Backscatter, minimal medium, 0.3 µM, relative to control): 101% | activity at 3 µM ([2]; KT2440, read-out: Final Backscatter, minimal medium, 3 µM, relative to control): 101% | activity at 30 µM ([2]; KT2440, read-out: Final Backscatter, minimal medium, 30 µM, relative to control): 103% | activity at 0.3 µM ([2]; KT2440, read-out: Growth rate, complex medium, 0.3 µM, relative to control): 114% | activity at 3 µM ([2]; KT2440, read-out: Growth rate, complex medium, 3 µM, relative to control): 103% | activity at 30 µM ([2]; KT2440, read-out: Growth rate, complex medium, 30 µM, relative to control): 105% | activity at 0.3 µM ([2]; KT2440, read-out: Growth rate, minimal medium, 0.3 µM, relative to control): 94.8% | activity at 3 µM ([2]; KT2440, read-out: Growth rate, minimal medium, 3 µM, relative to control): 96% | activity at 30 µM ([2]; KT2440, read-out: Growth rate, minimal medium, 30 µM, relative to control): 91.3% | Lag Phase [2, 15]: 103,9% | Lag Phase [2, 16]: 100,9% | Lag Phase [2, 17]: 107,3% | Lag Phase [2, 18]: 100,0% | Lag Phase [2, 19]: 101,5% | Lag Phase [2, 20]: 99,2%

O=C(/C=C/c1ccc(O)c(O)c1)c1c(O)cc(O)cc1O [Compound 11, 2′,4′,6′,3,4-Pentahydroxy-chalcone]
Influence on plants (Amaranthus retroflexus): No | activity at 0.3 µM [1, 3]: 98% | activity at 0.3 µM [1, 4]: 104% | activity at 3 µM [1, 5]: 98.1% | activity at 3 µM [1, 6]: 106% | activity at 30 µM [1, 7]: 96.9% | activity at 30 µM [1, 8]: 104% | activity at 0.3 µM [1, 9]: 98% | activity at 0.3 µM [1, 10]: 107% | activity at 3 µM [1, 11]: 98.7% | activity at 3 µM [1, 12]: 109% | activity at 30 µM [1, 13]: 97.9% | activity at 30 µM [1, 14]: 107% | Lag Phase [1, 15]: 107,1% | Lag Phase [1, 16]: 107,1% | Lag Phase [1, 17]: 107,1% | Lag Phase [1, 18]: 103,4% | Lag Phase [1, 19]: 101,7% | Lag Phase [1, 20]: 103,4% | activity at 0.3 µM [2, 21]: 92.6% | activity at 0.3 µM [2, 22]: 108% | activity at 3 µM [2, 23]: 96.8% | activity at 3 µM [2, 24]: 106% | activity at 30 µM [2, 25]: 92.5% | activity at 30 µM [2, 26]: 105% | activity at 0.3 µM [2, 27]: 93.9% | activity at 0.3 µM [2, 28]: 96.8% | activity at 3 µM [2, 29]: 94.9% | activity at 3 µM [2, 30]: 98.7% | activity at 30 µM [2, 31]: 99% | activity at 30 µM [2, 32]: 95.2% | Lag Phase [2, 15]: 95,5% | Lag Phase [2, 16]: 97,5% | Lag Phase [2, 17]: 97,0% | Lag Phase [2, 18]: 99,3% | Lag Phase [2, 19]: 98,9% | Lag Phase [2, 20]: 98,9%
